From patent publication US7429482B2, “Screening tools for discovery of novel anabolic agents” (United States of America as represented by the Department …, priority 2005, dated 2008)
“Also recorded” adds a separate entry of the source.

Key:
MAFbx = MAFbx expression in gastrocnemius of rats infused with dexamethasone with or without testosterone (qPCR); format: in vivo; conditions: rat, dexamethasone 0.7 mg/kg/day infusion, 7 days
Protocol: Muscle was flash frozen on dry ice after excision. Total RNA was isolated by phenol:chloroform extraction (Chomczynski and Sacchi, Anal Biochem 162: 156-159, 1987) and further enriched using RNAeasy minicolumns (Qiagen) with digestion on the column with RNAse-free DNAse (Qiagen).
RNA was quantified by absorbance at 260 nm. One microgram of total RNA was used to prepare cDNA libraries using the High Capacity cDNA Archive Kit (Applied Biosystems, Foster City, Calif.). Libraries were diluted 25-fold with water. Real time PCR was performed using Taqman 2×PCR buffer (Applied Biosystems) and an Applied Biosystems 7500 thermocycler. Data were normalized relative to that for 18S RNA. Relative changes in expression were determined using the 2^−ΔΔCt method. Taqman Assay on Demand probes (Applied Biosystems) were used for all assays except rat 18S RNA, which was quantified using the following […]: Forward: […] (SEQ ID NO:15); Reverse: […] (SEQ ID NO:16); Probe: FAM-[…] (SEQ ID NO:17; Labeled with FAM and non-fluoresent quencher, NFQ, at 5′ and 3′ ends, repsectively).
Male Wistar rats weighing 250 gm were anesthetized with ketamine/xylazine followed by implantation Alzet miniosmotic pumps administering vehicle (propylene glycocol), dexamethasone (0.7 mg/kg/day), or dexamethasone plus testosterone (28 mg/kg/day). […]

human MAFbx promoter = assay: Human MAFbx promoter luciferase reporter assay in C2C12 / C2C12.AR cells; format: cell-based
Description: The reporter genes pMAF3.1, pMAF2.4, pMAF948, pMAF400, and pMAF400-241 express firefly luciferase under the control of promoter regions of the human MAFbx gene and are described in Example 1. The rARC562G vector, encoding rat AR with a C562->G mutation in the first zinc binding module that disrupts binding of AR to DNA was described by Palvimo et al. (Mol Endocrinol 7: 1399-1407, 1993) pAR.4RKM (expressing AR with 4 R/K->M mutations in the nuclear localization sequence that is unable to enter the nucleus) and pAR.ABC (lacking the ligand binding domain) were described by Zhou et al. (J Biol Chem 269: 13115-13123, 1994). The pBabe.puro retroviral backbone described by Morgenstern and Land (Nucleic Acids Res 18: 3587-3596, 1990) was modified by introduction of a Not1 site. The ARE reporter gene expressing firefly luciferase under control of the MMTV hormone response element, and pSP72hAR-1, containing an insert of the full-length cDNA clone of the human AR, were provided by Dr. Diane Robins (University of Michigan). pRL-CMV expressing Renilla luciferase was from Promega (Madison, Wis.).
C2C12 cells (American Type Culture Collection, Manassas, Va.) were maintained in Dulbeco's modified Eagle's Medium (DMEM) containing 10% fetal bovine serum (FBS) and penicillin (100 U/ml)/streptomycin (100 μg/ml) (growth medium). Cells were incubated at 37° C. in humidified air containing 10% CO2. 293T cells (American Type Culture Collection) were maintained in growth medium as above. Transfection was achieved using Lipofectamine-Plus (Invitrogen, Carlsbad, Calif.) using 200 ng total DNA per well.
Cells were seeded into wells of 24-well plates (5×10^5 cells/well) then maintained overnight in DMEM with 10% CDS-FBS. Cells were co-transfected with the various reporter genes and pRL-CMV. Cells were incubated in the transfection mixture overnight, then covered with DMEM supplemented with 10% charcoal-dextran-stripped FBS (CDS-FBS) and either ethanol (EtOH) or hormones dissolved in EtOH. Cells were maintained for an additional 24 hours, at which time both firefly and renilla luciferase activity were determined using the Dual Luciferase Assay (Promega, Madison, Wis.) and a Berthold 96-well plate luminometer. Firefly luciferase activities were normalized relative to renilla luciferase. Ethanol concentrations were less than 0.1%.

human IGF-1 promoter = assay: Human IGF-1 promoter luciferase reporter assay in HepG2 cells; format: cell-based
Description: pREP4.hAR, expressing full length human AR, and pCMV.Sport.β-Gal, expressing β-galactosidase under a CMV promoter, were as described (Zhao et al., Steroids 69: 357-366, 2004). pcDNA5.rGR, expressing rat glucocorticoid receptor, was provided by Dr. Diane Robins (University of Michigan). The rARC562G vector expressing rat AR with a C562G mutation in the DBD, which results in a loss of DNA binding. The IGF-1 reporter genes pOLuc.1630, pOLuc1300, pOLuc926, pOLuc 320 were provided by Dr. Peter Rotwein (Oregon Health & Science University). These reporters expressed firefly luciferase under the control of 320 to 1630 bases upstream of the transcriptional start site of the human IGF-1 promoter as described in (Kim et al., Mol Endocrinol 5: 1964-1972, 1991). pEGX 4T-1 hAR2, expressing GST fused to the N-terminus of AR DNA-binding domain, was provided by Robert J. Matusik, Ph.D. (Vanderbuilt University Medical Center). pRL-CMV expressing Renilla luciferase was from Promega (Madison, Wis.).
HepG2 cells (ATCC, Bethesda, Md.) were maintained in Dulbecco's modified Eagle's medium (DMEM), supplemented with 10% fetal bovine serum (FBS) and antibiotics (penicillin 100 U/ml, streptomycin 100 μg/ml). Cells were seeded at 5×10^4 cells/per well into wells of 24-well plates containing DMEM supplemented with 10% charcoal-dextran stripped FBS (CDS-FBS). The next day, cells were transfected with a total of 300 ng DNA per well using Lipofectamine Plus (Invitrogen) with plasmids as indicated in the figure legends. Three hours after transfection, cells were covered with DMEM supplemented with 10% CDS-FBS and either hormone dissolved in ethanol, or ethanol, as indicated in the figures. […] After overnight incubation, activities of firefly and Renilla luciferase were determined using the Dual Luciferase Assay system (Promega).
Reporter plasmids expressing firefly luciferase under the control of upstream regions of the IGF-1 promoter were constructed by PCR amplification of segments of interest using primers shown in Table 2, using pOLuc-1630 as a template. The location of each amplified fragment is relative to the transcriptional start site. PCR amplification was conduced using a high fidelity Taq polymerase (Pfx, Invitrogen). PCR products were cloned into pCR2.1-TOPO TA (Invitrogen) and the sequences of the inserts were verified. Inserts were excised with Kpn I and Xho I, and were subcloned into pGL3-Promoter (Promega) at these same sites. PGL3-Promoter expresses firefly luciferase under the control of a minimal promoter.

MAFbx mRNA = MAFbx mRNA levels in AR6 / C2C12.AR cells (qPCR); format: cell-based, mouse; conditions: dexamethasone overnight
Protocol: (A) Rats were administered test agents as indicated in the figure for 7-days, at which time animals were sacrificed and MAFbx expression was determined in gastrocnemius muscles by qPCR. Data are mean values±SEM for at least 8 animals. * p<0.05 vs vehicle, t-test. (B) AR6 cells were seeded into 6-well plates and incubated overnight in growth medium. Medium was replaced with DMEM containing 2% horse serum followed by incubation for an additional 48 hours. Hormones or vehicle (EtOH) were added to the medium and cells were incubated overnight, at which time MAFbx mRNA levels were determined by qPCR and expressed as fold-induction versus levels in cells incubated with EtOH. Data are mean values±SEM for three determinations each performed in triplicate. * p<0.05 vs. EtOH (ANOVA). (C) Effect of testosterone on MAFbx mRNA half-life. C2C12.AR cells were incubated overnight in growth medium supplemented with testosterone or vehicle (EtOH). […] Levels of MAFbx mRNA are expressed as a percentage of those at time zero. […]
RNA was quantified by absorbance at 260 nm. […] Relative changes in expression were determined using the 2^−ΔΔCt method. Taqman Assay on Demand probes (Applied Biosystems) were used for all assays except rat 18S RNA, which was quantified using the following Assay on Demand Probes: Forward: […] […]

Row | Compound | increase in expression of MAFbx in gastrocnemius muscle (MAFbx) [fold] | increase in luciferase expression of pMAF3.1 reporter (human MAFbx promoter; C2C12.AR cells, dexamethasone) | activation of reporters incorporating ARE2 or both AREs (p3-13a and p3-32) (human IGF-1 promoter; HepG2 + GR, dexamethasone) [fold] | induction of luciferase expression, reporters incorporating ARE1 (p3-230 and p3-22) (human IGF-1 promoter; HepG2 + GR, dexamethasone) | increase in MAFbx mRNA expression (MAFbx mRNA) | suppression of reporter under control of 3.1 of the MAFbx upstream promoter (human MAFbx promoter; C2C12 muscle cells, 5 μM) [%] | expression of MAFbx reporter (general statement) (human MAFbx promoter; cells transduced with the MAFbx reporter construct) | activation of the upstream promoter of the human IGF-1 gene (human IGF-1 promoter; Hep G2 cells, FIG. 18)
1 | C[C@@H]1C[C@H]2[C@@H]3CCC4=CC(=O)C=C[C@]4(C)[C@@]3(F)[C@@H](O)C[C@]2(C)[C@@]1(O)C(=O)CO [dexamethasone] | ~4 | more than 1.5 fold | 5 | less than 2 fold | approximately 3 fold |  |  | 
2 | C[C@]12COC(=O)C[C@@H]1CC[C@@H]1[C@@H]2CC[C@@]2(C)[C@H]1CC[C@]2(C)O [oxandrolone] |  |  |  |  |  | 15 | does not decrease; also recorded: less effective | does not induce and not
